According to ChEMBL document CHEMBL3232706, “SAR-studies on the importance of aromatic ring topologies in search for selective 5-HT(7) receptor ligands among phenylpiperazine hydantoin derivatives” (Eur J Med Chem, 2014):

Tests used:
[1] = molecular target: 5-hydroxytryptamine receptor 6 (Homo sapiens, UniProt P50406); experiment: Displacement of [3H]-LSD from human recombinant 5-HT6 receptor expressed in HEK293 cell membrane after 1 hr by Microbeta scintillation counting analysis; assay type: cell membranes
Sequence of 5-hydroxytryptamine receptor 6 (P50406 whole entry): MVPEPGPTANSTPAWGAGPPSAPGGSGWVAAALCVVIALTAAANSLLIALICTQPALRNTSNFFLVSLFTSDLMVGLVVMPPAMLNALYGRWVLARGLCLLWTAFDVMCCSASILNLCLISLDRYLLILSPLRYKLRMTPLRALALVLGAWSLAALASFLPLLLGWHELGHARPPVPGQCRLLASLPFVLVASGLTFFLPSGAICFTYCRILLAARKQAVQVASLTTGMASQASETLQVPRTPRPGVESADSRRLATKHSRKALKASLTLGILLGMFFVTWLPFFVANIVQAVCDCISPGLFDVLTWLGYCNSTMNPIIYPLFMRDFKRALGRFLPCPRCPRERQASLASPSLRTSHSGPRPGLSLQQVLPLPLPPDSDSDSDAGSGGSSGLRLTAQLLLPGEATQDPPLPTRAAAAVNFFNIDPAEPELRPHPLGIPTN

[2] = molecular target: T1, Adrenergic receptor alpha-1 (Rattus norvegicus, UniProt P15823+P23944+P43140); experiment: Displacement of [3H]prazosin from alpha1 adrenergic receptor in rat cerebral cortex after 30 mins by Microbeta scintillation counting analysis; assay type: tissue-based
T1 sequence (P15823 whole entry): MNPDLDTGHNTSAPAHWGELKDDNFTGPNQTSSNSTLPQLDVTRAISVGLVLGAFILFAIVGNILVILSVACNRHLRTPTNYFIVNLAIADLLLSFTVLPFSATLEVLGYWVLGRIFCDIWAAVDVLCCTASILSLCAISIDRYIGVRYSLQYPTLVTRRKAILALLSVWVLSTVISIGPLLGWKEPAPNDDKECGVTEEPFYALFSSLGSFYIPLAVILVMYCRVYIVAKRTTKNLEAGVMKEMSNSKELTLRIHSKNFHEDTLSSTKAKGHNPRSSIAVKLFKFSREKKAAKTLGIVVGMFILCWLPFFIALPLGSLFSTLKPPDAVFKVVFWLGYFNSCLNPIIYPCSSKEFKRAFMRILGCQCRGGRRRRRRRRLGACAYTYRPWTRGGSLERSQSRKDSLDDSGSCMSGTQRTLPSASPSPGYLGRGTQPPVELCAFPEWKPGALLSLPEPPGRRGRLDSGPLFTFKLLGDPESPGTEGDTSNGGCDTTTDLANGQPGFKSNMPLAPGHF
T1 sequence (P23944 whole entry): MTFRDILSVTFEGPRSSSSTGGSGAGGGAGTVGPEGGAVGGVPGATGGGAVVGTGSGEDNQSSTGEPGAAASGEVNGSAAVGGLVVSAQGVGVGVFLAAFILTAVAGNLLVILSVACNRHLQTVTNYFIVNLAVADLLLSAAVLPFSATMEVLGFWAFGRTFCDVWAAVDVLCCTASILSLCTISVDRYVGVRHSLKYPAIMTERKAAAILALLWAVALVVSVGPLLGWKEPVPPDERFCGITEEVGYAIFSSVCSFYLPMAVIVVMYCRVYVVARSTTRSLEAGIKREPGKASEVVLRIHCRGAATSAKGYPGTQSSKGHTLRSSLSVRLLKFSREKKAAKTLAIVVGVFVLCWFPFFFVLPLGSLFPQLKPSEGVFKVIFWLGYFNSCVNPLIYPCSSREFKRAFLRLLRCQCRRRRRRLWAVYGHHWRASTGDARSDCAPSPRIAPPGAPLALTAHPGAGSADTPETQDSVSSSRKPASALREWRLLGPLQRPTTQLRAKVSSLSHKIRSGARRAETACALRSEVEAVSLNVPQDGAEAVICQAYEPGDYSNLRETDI
T1 sequence (P43140 whole entry): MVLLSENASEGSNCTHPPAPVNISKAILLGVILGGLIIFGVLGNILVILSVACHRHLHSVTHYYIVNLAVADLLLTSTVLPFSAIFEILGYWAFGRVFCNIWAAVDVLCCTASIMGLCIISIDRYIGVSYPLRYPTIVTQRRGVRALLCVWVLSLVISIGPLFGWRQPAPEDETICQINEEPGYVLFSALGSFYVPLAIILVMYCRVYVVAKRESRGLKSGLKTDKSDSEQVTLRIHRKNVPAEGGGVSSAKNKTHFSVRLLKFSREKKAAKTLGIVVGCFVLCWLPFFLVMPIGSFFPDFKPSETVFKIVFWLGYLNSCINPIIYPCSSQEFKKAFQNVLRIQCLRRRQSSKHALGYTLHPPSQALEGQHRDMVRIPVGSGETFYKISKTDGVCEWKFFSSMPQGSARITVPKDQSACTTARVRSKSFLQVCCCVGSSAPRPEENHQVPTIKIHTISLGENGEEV

[3] = molecular target: T2, 5-hydroxytryptamine receptor 3A (Homo sapiens) (UniProt P46098); experiment: Reversible inhibition of human 5-HT3A expressed in xenopus oocytes assessed as decrease in 5-HT-activated chloride current at […] by two-electrode voltage clamp technique; assay type: cell-based
T2 sequence (whole entry): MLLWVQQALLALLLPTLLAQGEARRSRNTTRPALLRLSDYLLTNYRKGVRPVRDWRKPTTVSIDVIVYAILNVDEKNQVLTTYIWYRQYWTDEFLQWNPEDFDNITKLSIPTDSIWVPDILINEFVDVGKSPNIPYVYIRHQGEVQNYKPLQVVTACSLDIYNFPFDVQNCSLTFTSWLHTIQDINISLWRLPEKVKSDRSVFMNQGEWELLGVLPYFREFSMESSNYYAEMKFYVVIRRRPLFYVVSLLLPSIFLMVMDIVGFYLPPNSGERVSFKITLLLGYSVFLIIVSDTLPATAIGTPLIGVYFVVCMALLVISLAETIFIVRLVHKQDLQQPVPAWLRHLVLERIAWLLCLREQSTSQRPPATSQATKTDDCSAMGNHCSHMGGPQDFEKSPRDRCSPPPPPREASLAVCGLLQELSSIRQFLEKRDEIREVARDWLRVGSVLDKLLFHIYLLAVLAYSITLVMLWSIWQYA

[4] = molecular target: 5-hydroxytryptamine receptor 7 (Homo sapiens, UniProt P34969); experiment: Displacement of [3H]-5-CT from human recombinant 5-HT7 receptor expressed in HEK293 cell membrane after 1 hr by Microbeta scintillation counting analysis; assay type: cell membranes
Sequence of 5-hydroxytryptamine receptor 7 (P34969 whole entry): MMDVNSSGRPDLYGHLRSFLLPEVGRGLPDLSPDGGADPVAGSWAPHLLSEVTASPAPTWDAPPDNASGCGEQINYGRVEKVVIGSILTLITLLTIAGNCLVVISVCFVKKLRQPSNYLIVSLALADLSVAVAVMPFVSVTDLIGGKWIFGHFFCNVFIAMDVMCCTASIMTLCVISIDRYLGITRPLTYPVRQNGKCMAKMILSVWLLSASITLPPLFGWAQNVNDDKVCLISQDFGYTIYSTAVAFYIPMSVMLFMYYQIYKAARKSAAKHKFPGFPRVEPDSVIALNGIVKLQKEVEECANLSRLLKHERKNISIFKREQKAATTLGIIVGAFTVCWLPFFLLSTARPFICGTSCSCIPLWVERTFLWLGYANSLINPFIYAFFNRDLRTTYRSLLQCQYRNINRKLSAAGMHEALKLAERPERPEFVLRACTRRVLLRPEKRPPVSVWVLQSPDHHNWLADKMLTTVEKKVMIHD

HEK293 [5] = experiment: Selectivity ratio of Ki for human recombinant 5-HT1A receptor expressed in HEK293 cell membrane to Ki for human recombinant 5-HT7 receptor expressed in HEK293 cell membrane; assay type: cell-based
HEK293 [6] = experiment: Selectivity ratio of Ki for alpha1 adrenergic receptor in rat cerebral cortex to Ki for human recombinant 5-HT7 receptor expressed in HEK293 cell membrane; assay type: cell-based
[7] = molecular target: T3, 5-hydroxytryptamine receptor 1A (Homo sapiens, UniProt P08908); experiment: Displacement of [3H]-8-OH-DPAT from human recombinant 5-HT1A receptor expressed in HEK293 cell membrane after 1 hr by Microbeta scintillation counting analysis; assay type: cell membranes
T3 sequence (P08908 whole entry): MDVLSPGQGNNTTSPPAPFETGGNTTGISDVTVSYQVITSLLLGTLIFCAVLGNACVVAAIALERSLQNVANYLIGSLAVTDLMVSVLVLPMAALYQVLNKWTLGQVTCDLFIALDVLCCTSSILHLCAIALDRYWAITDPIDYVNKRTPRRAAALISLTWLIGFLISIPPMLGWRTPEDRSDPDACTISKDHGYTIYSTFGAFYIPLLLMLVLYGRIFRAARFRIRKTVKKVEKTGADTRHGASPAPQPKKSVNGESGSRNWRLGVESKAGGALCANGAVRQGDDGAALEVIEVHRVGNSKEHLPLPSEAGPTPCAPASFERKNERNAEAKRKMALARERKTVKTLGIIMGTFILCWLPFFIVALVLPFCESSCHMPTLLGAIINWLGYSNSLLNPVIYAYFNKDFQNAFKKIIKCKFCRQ

[8] = molecular target: T4, Alpha-1D adrenergic receptor (Rattus norvegicus, UniProt P23944); experiment: Antagonist activity at alpha1D adrenoceptor in Wistar (Krf:(WI) WU) rat endothelium-denuded thoracic aorta assessed as inhibition of noradrenaline-induced contraction after 30 mins; conditions: read-out: pA2 (converted)
T4 sequence (P23944 whole entry): T1 sequence (P23944 whole entry)

[9] = molecular target: T5, Alpha-1B adrenergic receptor (Mus musculus, UniProt P97717); experiment: Antagonist activity at alpha1B-adrenoceptor in Albino swiss mouse spleen assessed as inhibition of noradrenaline-induced contraction after 30 mins; conditions: read-out: pA2 (converted)
T5 sequence (P97717 whole entry): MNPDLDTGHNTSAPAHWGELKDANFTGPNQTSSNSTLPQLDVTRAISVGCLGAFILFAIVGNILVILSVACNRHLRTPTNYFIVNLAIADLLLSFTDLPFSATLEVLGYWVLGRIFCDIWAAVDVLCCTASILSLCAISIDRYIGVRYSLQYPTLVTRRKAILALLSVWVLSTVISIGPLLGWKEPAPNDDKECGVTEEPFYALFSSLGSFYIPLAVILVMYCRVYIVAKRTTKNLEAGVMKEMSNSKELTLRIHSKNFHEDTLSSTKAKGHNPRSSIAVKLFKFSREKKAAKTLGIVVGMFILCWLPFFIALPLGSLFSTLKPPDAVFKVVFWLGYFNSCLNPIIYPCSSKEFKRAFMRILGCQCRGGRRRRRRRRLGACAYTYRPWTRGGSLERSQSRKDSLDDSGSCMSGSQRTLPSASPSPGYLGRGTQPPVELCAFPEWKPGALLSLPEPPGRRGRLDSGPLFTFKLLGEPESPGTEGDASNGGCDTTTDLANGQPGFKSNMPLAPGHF

[10] = molecular target: T6, Alpha-1A adrenergic receptor (Rattus norvegicus, UniProt P43140); experiment: Antagonist activity at alpha1A adrenoceptor in Wistar (Krf:(WI) WU) rat endothelium-denuded tail artery assessed as inhibition of noradrenaline-induced contraction after 30 mins; conditions: read-out: pA2 (converted)
T6 sequence (P43140 whole entry): T1 sequence (P43140 whole entry)

Compound	Ki [1] [nM]	Ki [2] [nM]	inhibition [3] [%]	Ki [4] [nM]	Ki [7] [nM]	Kb [8] [nM]	Kb [9] [nM]	Kb [10] [nM]	Ratio Ki (HEK293 [5])	Ratio Ki (HEK293 [6])
COc1ccccc1N1CCN(CC(O)CN2C(=O)NC(C)(c3ccc(F)cc3)C2=O)CC1.Cl (stereo not given)	10800	181.1	16.6	–	–	–	–	–	–	–
CN1C(=O)N(CCCCCN2CCN(c3ccccc3F)CC2)C(C)(c2ccccc2)C1=O.Cl (stereo not given)	25500	11.3	–	157	124	3.01	7.21	48.3	–	–
CCOc1ccccc1N1CCN(CCCN2C(=O)N(C)C(=O)C2(c2ccccc2)c2ccccc2)CC1	4140	2600	–	95	5.5	–	–	–	–	–
CC1(C)C(=O)N(Cc2ccccc2)C(=O)N1CCCCCN1CCN(c2ccc(F)cc2F)CC1.Cl	7470	71.5	–	172	235	–	–	–	–	–
CN1C(=O)N(CCCCCN2CCN(c3ccccc3)CC2)C(c2ccccc2)(c2ccccc2)C1=O.Cl	3070	6.7	36.9	77	13.2	–	–	–	–	–
CN1C(=O)N(CC(O)CN2CCN(c3ccccc3)CC2)C(c2ccccc2)(c2ccccc2)C1=O (stereo not given)	20400	–	–	353	324	–	–	–	–	–
CC1(C)C(=O)N(Cc2ccc(F)cc2)C(=O)N1CCCCCN1CCN(c2ccc(F)cc2F)CC1.Cl	8100	38.8	–	123	299	–	–	–	–	–
COc1ccccc1N1CCN(CCCCCN2C(=O)N(Cc3ccccc3)C(=O)C2(C)C)CC1.Cl	8610	42.6	–	72	26	–	–	–	–	–
COc1ccccc1N1CCN(CCCN2C(=O)N(C)C(=O)C2(c2ccccc2)c2ccccc2)CC1	29100	–	–	210	6.5	–	–	–	–	–
CN1C(=O)N(CCCCCN2CCN(c3ccccc3)CC2)C(C)(c2ccccc2)C1=O.Cl (stereo not given)	9600	7.3	–	–	135	7.31	48.8	38.6	–	–
COc1ccccc1N1CCN(CCCCN2C(=O)N(C)C(=O)C2(c2ccccc2)c2ccccc2)CC1	3570	–	–	16	0.8	–	–	–	–	–
CC1(C)C(=O)N(Cc2ccccc2)C(=O)N1CCCCCN1CCN(c2ccccc2)CC1.Cl	4370	68	14.3	70	79	–	–	–	–	–
COc1ccccc1N1CCN(CCCCCN2C(=O)N(C)C(=O)C2(C)c2ccccc2)CC1.Cl (stereo not given)	14600	42.3	19.8	34	23.3	–	–	–	–	–

Stronger by Ki [1], values ahead:

Ki [1] [nM]	Ki [2] [nM]	inhibition [3] [%]	Ki [4] [nM]	Ki [7] [nM]	Kb [8] [nM]	Kb [9] [nM]	Kb [10] [nM]	Compound	Ratio Ki (HEK293 [5])	Ratio Ki (HEK293 [6])
395	968.8	13.8	31	88	–	–	–	CC1(C)C(=O)N(Cc2ccc(Cl)cc2Cl)C(=O)N1CCCCCN1CCN(c2cccc(Cl)c2Cl)CC1.Cl	3	31
2880	758.5	–	456	2180	–	–	–	CC1(C)C(=O)N(Cc2ccc(Cl)cc2Cl)C(=O)N1CCCCCN1CCN(c2ccc(Cl)cc2)CC1.Cl	–	–
2510	71	–	135	76	–	–	–	CC1(C)C(=O)N(Cc2ccccc2)C(=O)N1CCCCCN1CCN(c2ccccc2F)CC1.Cl	–	–
314	673	–	78	301	–	–	–	CC1(C)C(=O)N(Cc2ccc(Cl)cc2Cl)C(=O)N1CCCCCN1CCN(c2ccc(Cl)c(Cl)c2)CC1.Cl	4	9
2930	97.2	–	122	45	–	–	–	COc1cccc(N2CCN(CCCCCN3C(=O)N(Cc4ccccc4)C(=O)C3(C)C)CC2)c1.Cl	–	–
1760	36.8	17.2	46	305	–	–	–	CC1(C)C(=O)N(Cc2ccc(F)cc2)C(=O)N1CCCCCN1CCN(c2ccc(F)cc2)CC1.Cl	–	–
1940	68.4	–	45	201	–	–	–	CC1(C)C(=O)N(Cc2ccccc2)C(=O)N1CCCCCN1CCN(c2ccc(F)cc2)CC1.Cl	–	–
